Test results as given in patent US20240398828A1, “HETERO-ATOM CONTAINING COMPOUNDS AND USES THEREOF” (Kumquat Biosciences Inc., priority 2021, published 2024).

What was measured:
PTPN1 (i.e., PTP1B) = molecular target: T1, PTPN1 (i.e., PTP1B) (Homo sapiens, UniProt P18031); experiment: Phosphatase activity assay (DiFMUP substrate), PTP1B; assay type: biochemical; conditions: compounds binned ≤1 uM or >1 uM
T1 sequence (P18031 1-435): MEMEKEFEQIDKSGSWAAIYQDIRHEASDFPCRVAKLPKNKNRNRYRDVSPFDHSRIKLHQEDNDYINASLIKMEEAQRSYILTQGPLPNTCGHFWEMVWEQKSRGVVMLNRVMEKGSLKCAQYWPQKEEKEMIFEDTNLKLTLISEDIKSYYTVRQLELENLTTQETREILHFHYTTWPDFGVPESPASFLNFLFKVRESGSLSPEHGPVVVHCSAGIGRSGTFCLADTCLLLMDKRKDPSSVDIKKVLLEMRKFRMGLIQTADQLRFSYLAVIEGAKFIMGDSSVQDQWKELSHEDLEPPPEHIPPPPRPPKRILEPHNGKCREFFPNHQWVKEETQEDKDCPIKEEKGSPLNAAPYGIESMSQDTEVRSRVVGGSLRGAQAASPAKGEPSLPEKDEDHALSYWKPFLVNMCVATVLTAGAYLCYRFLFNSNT
Procedure: (§1) The selectivity and potency of a small molecule PTPN2 inhibitor as provided herein against one or more protein tyrosine phosphatase (PTP) enzymes, and specifically against PTPN2, is assessed in various ways. The one or more PTP enzymes comprise Mycobacterium protein tyrosine phosphatase A (mPTPA), Mycobacterium protein tyrosine phosphatase B (mPTPB), PTPN1 (i.e., PTP1B), PTPN2 (i.e., TC-PTP), PTPN22 (i.e., LYP), SHP-1, SHP-2, FAP-1, Meg2, HePTP, Laforin, VHX, VHR, LMWPTP, Cdc14A, LAR, CD45, PTPRG, a fragment thereof, a variant thereof, and a combination thereof. Selectivity and potency of a small molecule PTPN2 inhibitor is evaluated using a PTP activity inhibition assay. The assay is performed using a buffer comprising 50 mM HEPES buffer pH 7.5, 150 mM NaCl, 0.5 mM EDTA, 1 mM DTT, 0.001% Tween-20.
(§2) The assay is performed using a phosphated substrate, e.g., 10 mM 6,8-Difluoro-4-Methylumbelliferyl Phosphate (DIFMUP) that is stored at −20° C. Alternatively or in addition to, the assay is performed using other phosphated substrate (e.g., fluorescein diphosphate). Each PTP enzyme is diluted in the assay buffer
(§3) The assay can be carried out at room temperature in multiplate format, e.g., using 384 well plates. A small molecule PTPN2 inhibitor dissolved in DMSO at one of 10 concentrations from a serial dilution or DMSO alone for control is added to each well. A mixture of the assay buffer comprising PTP enzyme (e.g., 0.025 ng/ul PTPN2) is added to each well and mixed for approximately 2 minutes. The reaction is initiated by adding DiFMUP diluted in the assay buffer to a final concentration of approximately 45 μM DiFMUP in PTPN2 assay. For each PTP enzyme, DiFMUP is added at the Km (Michaelis constant) of the enzyme that had been independently determined. The phosphatase activity of the PTP enzyme is assessed by monitoring appearance of a fluorescent product (6,8-difluoro-7-hydroxyl-4-coumarin (DiFMU) from DiFMUP) continuously for about 15 to 30 minutes, using the INFINITE M1000Pro plate reader (Tecan) with excitation at 360 nm and emission at 450 nm (cutoff filter at 435 nm) for DiFMU. Each assay is performed at least in duplicate. The rate (e.g., the initial rate) of DiFMU formation is plotted against the concentration of the small molecule PTPN2 inhibitor, and the data is fitted (e.g., using a 4-parameter equation) to determine the inflection point of the fit as the IC50 of the small molecule PTPN2 inhibitor for a specific enzyme. Utilizing this assay, the ability of the compounds in Table 2 to inhibit PTPN2 and PTP1B has been assessed. Table 3 summarizes the IC50 values.

PTPN2 (i.e., TC-PTP) = molecular target: T2, PTPN2 (i.e., TC-PTP) (Homo sapiens, UniProt P17706); experiment: Phosphatase activity assay (DiFMUP substrate), PTPN2; assay type: biochemical; conditions: compounds binned ≤1 uM or >1 uM
T2 sequence (P17706 1-415): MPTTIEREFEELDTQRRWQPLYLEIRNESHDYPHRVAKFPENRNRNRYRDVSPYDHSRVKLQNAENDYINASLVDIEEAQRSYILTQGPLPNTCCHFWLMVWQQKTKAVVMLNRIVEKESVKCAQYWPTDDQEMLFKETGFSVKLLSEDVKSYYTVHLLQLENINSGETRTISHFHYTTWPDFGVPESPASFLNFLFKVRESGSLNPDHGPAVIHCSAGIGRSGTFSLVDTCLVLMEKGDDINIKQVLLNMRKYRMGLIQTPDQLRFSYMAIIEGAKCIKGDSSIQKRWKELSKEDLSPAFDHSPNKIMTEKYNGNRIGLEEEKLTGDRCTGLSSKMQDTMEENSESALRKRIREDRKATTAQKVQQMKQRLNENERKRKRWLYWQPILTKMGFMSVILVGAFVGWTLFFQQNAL
Procedure: as §1, §2, §3

SMILES	IC50 (PTPN1 (i.e., PTP1B)) [nM]	IC50 (PTPN2 (i.e., TC-PTP)) [nM]
N#CC1(n2cc(-c3ccc(O)c(N4CC(=O)NS4(=O)=O)c3F)c(F)n2)CC1 [Compound 474, 1-(4-(3-(1,1-dioxido-4-oxo-1,2,5-thiadiazolidin-2-yl)-2-fluoro-4-hydroxyphenyl)-3-fluoro-1H-pyrazol-1-yl)cyclopropane-1-carbonitrile]	≤ 1000	≤ 1000
O=C1CN(c2c(O)ccc(-c3cnn(C4CC5CCC(C4)N5C(=O)C4CC4)c3)c2F)S(=O)(=O)N1 (centres unmarked) [Compound 411, 5-(3-(1-(8-(cyclopropanecarbonyl)-8-azabicyclo[3.2.1]octan-3-yl)-1H-pyrazol-4-yl)-2-fluoro-6-hydroxyphenyl)-1,2,5-thiadiazolidin-3-one 1,1-dioxide]	≤ 1000	≤ 1000
O=C1CN(c2c(O)ccc(-c3cnn(CC4CC4)c3)c2F)S(=O)(=O)N1 [Compound 131, 5-(3-(1-(cyclopropylmethyl)-1H-pyrazol-4-yl)-2-fluoro-6-hydroxyphenyl)-1,2,5-thiadiazolidin-3-one 1,1-dioxide]	≤ 1000	≤ 1000
N#C[C@H]1CC[C@@H](n2cnc(-c3ccc(O)c(N4CC(=O)NS4(=O)=O)c3F)c2)CC1 [Compound 357, (1s,4s)-4-(4-(3-(1,1-dioxido-4-oxo-1,2,5-thiadiazolidin-2-yl)-2-fluoro-4-hydroxyphenyl)-1H-imidazol-1-yl)cyclohexane-1-carbonitrile]	≤ 1000	≤ 1000
CC(C)CCn1cc(-c2ccc(O)c(N3CC(=O)NS3(=O)=O)c2F)cn1 [Compound 203, 5-(2-fluoro-6-hydroxy-3-(1-isopentyl-1H-pyrazol-4-yl)phenyl)-1,2,5-thiadiazolidin-3-one 1,1-dioxide]	≤ 1000	≤ 1000
O=C1CN(c2c(O)ccc(-c3cc(C4CC4(F)F)nn3C(F)F)c2F)S(=O)(=O)N1 (centres unmarked) [Compound 538, 5-(3-(3-(2,2-difluorocyclopropyl)-1-(difluoromethyl)-1H-pyrazol-5-yl)-2-fluoro-6-hydroxyphenyl)-1,2,5-thiadiazolidin-3-one 1,1-dioxide]	≤ 1000	≤ 1000
Cc1cc(-c2ccc(O)c(N3CC(=O)NS3(=O)=O)c2F)sn1 [Compound 283, 5-(2-fluoro-6-hydroxy-3-(3-methylisothiazol-5-yl)phenyl)-1,2,5-thiadiazolidin-3-one 1,1-dioxide]	≤ 1000	≤ 1000
O=C1CN(c2c(O)ccc(-c3cc(-c4ccccc4)n[nH]3)c2F)S(=O)(=O)N1 [Compound 124, 5-(2-fluoro-6-hydroxy-3-(3-phenyl-1H-pyrazol-5-yl)phenyl)-1,2,5-thiadiazolidin-3-one 1,1-dioxide]	≤ 1000	≤ 1000
O=C1CN(c2c(O)ccc(-c3cnn(CCC4CCCOC4)c3)c2F)S(=O)(=O)N1 (centres unmarked) [Compound 154, 5-(2-fluoro-6-hydroxy-3-(1-(2-(tetrahydro-2H-pyran-3-yl)ethyl)-1H-pyrazol-4-yl)phenyl)-1,2,5-thiadiazolidin-3-one 1,1-dioxide]	≤ 1000	≤ 1000

Further lines, results first:

IC50 (PTPN1 (i.e., PTP1B)) [nM]	IC50 (PTPN2 (i.e., TC-PTP)) [nM]	SMILES
≤ 1000	≤ 1000	O=C1CN(c2c(O)ccc(-c3cc(C4(C(F)F)CC4)n[nH]3)c2F)S(=O)(=O)N1 [Compound 526, 5-(3-(3-(1-(difluoromethyl)cyclopropyl)-1H-pyrazol-5-yl)-2-fluoro-6-hydroxyphenyl)-1,2,5-thiadiazolidin-3-one 1,1-dioxide]
≤ 1000	≤ 1000	O=C1CN(c2c(O)ccc(-c3cnn(-c4cccnc4)c3)c2F)S(=O)(=O)N1 [Compound 102, 5-(2-fluoro-6-hydroxy-3-(1-(pyridin-3-yl)-1H-pyrazol-4-yl)phenyl)-1,2,5-thiadiazolidin-3-one 1,1-dioxide]
≤ 1000	≤ 1000	Cc1noc(C)c1Cn1cc(-c2ccc(O)c(N3CC(=O)NS3(=O)=O)c2F)cn1 [Compound 309, 5-(3-(1-((3,5-dimethylisoxazol-4-yl)methyl)-1H-pyrazol-4-yl)-2-fluoro-6-hydroxyphenyl)-1,2,5-thiadiazolidin-3-one 1,1-dioxide]
≤ 1000	≤ 1000	O=C1CN(c2c(O)ccc(-c3ccc(N4CCCC4)cc3)c2F)S(=O)(=O)N1 [Compound 117, 5-(2-fluoro-4-hydroxy-4′-(pyrrolidin-1-yl)-[1,1′-biphenyl]-3-yl)-1,2,5-thiadiazolidin-3-one 1,1-dioxide]
≤ 1000	≤ 1000	O=C1CN(c2c(O)ccc(-c3cc(N4CC5(COC5)C4)n[nH]3)c2F)S(=O)(=O)N1 [Compound 466, 5-(3-(3-(2-oxa-6-azaspiro[3.3]heptan-6-yl)-1H-pyrazol-5-yl)-2-fluoro-6-hydroxyphenyl)-1,2,5-thiadiazolidin-3-one 1,1-dioxide]
≤ 1000	≤ 1000	O=C1CN(c2c(O)ccc(-c3cnn(C(F)(F)C(F)F)c3)c2F)S(=O)(=O)N1 [Compound 410, 5-(2-fluoro-6-hydroxy-3-(1-(1,1,2,2-tetrafluoroethyl)-1H-pyrazol-4-yl)phenyl)-1,2,5-thiadiazolidin-3-one 1,1-dioxide]
≤ 1000	≤ 1000	CC(C)CCc1cc(-c2ccc(O)c(N3CC(=O)NS3(=O)=O)c2F)[nH]n1 [Compound 389, 5-(2-fluoro-6-hydroxy-3-(3-isopentyl-1H-pyrazol-5-yl)phenyl)-1,2,5-thiadiazolidin-3-one 1,1-dioxide]
> 1000	> 1000	O=C1CN(c2c(O)ccc(-c3cc(O)cc4ccccc34)c2F)S(=O)(=O)N1 [Compound 218, 5-(2-fluoro-6-hydroxy-3-(3-hydroxynaphthalen-1-yl)phenyl)-1,2,5-thiadiazolidin-3-one 1,1-dioxide]
≤ 1000	≤ 1000	COC(=O)n1nc(-c2ccc(O)c(N3CC(=O)NS3(=O)=O)c2F)cc1C1CC1 [Compound 536, methyl 5-cyclopropyl-3-(3-(1,1-dioxido-4-oxo-1,2,5-thiadiazolidin-2-yl)-2-fluoro-4-hydroxyphenyl)-1H-pyrazole-1-carboxylate]
≤ 1000	≤ 1000	Cc1cc(-c2ccc(O)c(N3CC(=O)NS3(=O)=O)c2F)n(C)n1 [Compound 284, 5-(3-(1,3-dimethyl-1H-pyrazol-5-yl)-2-fluoro-6-hydroxyphenyl)-1,2,5-thiadiazolidin-3-one 1,1-dioxide]
≤ 1000	≤ 1000	O=C1CN(c2c(O)ccc(-c3cnn(CC4(Cl)CCC4)c3)c2F)S(=O)(=O)N1 [Compound 387, 5-(3-(1-((1-chlorocyclobutyl)methyl)-1H-pyrazol-4-yl)-2-fluoro-6-hydroxyphenyl)-1,2,5-thiadiazolidin-3-one 1,1-dioxide]
	> 1000	CC(C1CCCCC1)n1cnc(-c2ccc(O)c(N3CC(=O)NS3(=O)=O)c2F)c1 (centres unmarked) [Compound 413, 5-(3-(1-(1-cyclohexylethyl)-1H-imidazol-4-yl)-2-fluoro-6-hydroxyphenyl)-1,2,5-thiadiazolidin-3-one 1,1-dioxide]
